According to the NIST ThermoML archive (doi:10.1016/j.fluid.2010.01.027):
Numbers after ± are expanded uncertainties.

Conditions: for mass density: Vibrating tube method

FC(F)(F)C(F)(F)C(F)(F)C(F)(F)F [decafluorobutane]
speed of sound [m/s], Gas, sonar gas analyzer
Conditions	10 kPa	20 kPa	30 kPa	50 kPa	70 kPa	100 kPa	150 kPa	200 kPa	250 kPa	300 kPa
248.7 K	95.1 ± 1.2	94.56 ± 1.2	93.98 ± 1.2	–	–	–	–	–	–	–
257.7 K	96.57 ± 1.2	96.22 ± 1.2	95.7 ± 1.2	94.78 ± 1.2	–	–	–	–	–	–
271.3 K	99.26 ± 1.2	98.71 ± 1.2	98.33 ± 1.2	97.39 ± 1.2	96.39 ± 1.2	94.79 ± 1.2	–	–	–	–
281.5 K	101.05 ± 1.2	100.64 ± 1.2	100.23 ± 1.2	99.38 ± 1.2	98.4 ± 1.2	97.04 ± 1.2	95.08 ± 1.2	–	–	–
293.1 K	103.02 ± 1.2	102.7 ± 1.2	102.37 ± 1.2	101.71 ± 1.2	100.86 ± 1.2	99.66 ± 1.2	97.68 ± 1.2	95.63 ± 1.2	–	–
303.1 K	104.78 ± 1.2	104.57 ± 1.2	104.25 ± 1.2	103.35 ± 1.2	103.06 ± 1.2	103.05 ± 1.2	99.91 ± 1.2	98.41 ± 1.2	96.5 ± 1.2	94.89 ± 1.2

FC(F)(F)C(F)(F)C(F)(F)C(F)(F)C(F)(F)C(F)(F)C(F)(F)F [hexadecafluoroheptane]
101.33 kPa, Liquid
Conditions	mass density [kg/m3]
278.15 K	1769.3 ± 1
288.15 K	1751 ± 1
298.15 K	1728.4 ± 0.9
308.15 K	1700.8 ± 0.9
318.15 K	1672.7 ± 0.9
328.15 K	1641.9 ± 0.9
333.15 K	1629.4 ± 0.8

101.33 kPa, Liquid, sound analyzer
Conditions	speed of sound [m/s]
278.15 K	608.3 ± 1.3
288.15 K	578.42 ± 1.3
298.15 K	548.73 ± 1.3
308.15 K	517.47 ± 1.3
318.15 K	500.56 ± 1.3
328.15 K	470.6 ± 1.3
333.15 K	457.24 ± 1.3

FC(F)(F)C(F)(F)C(F)(F)C(F)(F)C(F)(F)C(F)(F)C(F)(F)C(F)(F)F [octadecafluorooctane]
101.33 kPa, Liquid
Conditions	mass density [kg/m3]
278.15 K	1810 ± 1
288.15 K	1786.7 ± 1
298.15 K	1760.6 ± 1
308.15 K	1735 ± 1
318.15 K	1708.6 ± 0.9
328.15 K	1681.6 ± 0.9
338.15 K	1656.4 ± 0.9

101.33 kPa, Liquid, sound analyzer
Conditions	speed of sound [m/s]
278.15 K	640.32 ± 1.3
288.15 K	610.05 ± 1.3
298.15 K	581.94 ± 1.3
308.15 K	552.33 ± 1.3
318.15 K	524.1 ± 1.3
328.15 K	508.43 ± 1.3
338.15 K	479.24 ± 1.3
